Laboratory results published in PubChem BioAssay AID180 (DTP/NCI, 2004).
Where “and” joins values, the source holds several entries; their conditions need not be identical. Identical values can stand only once.

Test system: BDF1 mice, Adenocarcinoma 755 s.c., tumor weight T/C
Assay: NCI In Vivo Anticancer Drug Screen. Data for tumor model Adenocarcinoma 755 (subcutaneous) in B6D2F1 (BDF1) mice
Conditions: endpoint: mean tumor weight, higher = larger tumour
Summary of the method: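 Tumor-bearing mice receive test compound while controls get vehicle alone. Antitumor effect is scored from survival or tumor dimensions as a T/C quotient.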

## S=c1nc[nH]c2nc[nH]c12
dose: 0.01 mg/kg/injection, schedule: Q01DX011 (ip), vehicle: carboxymethylcellulose (CMC)
  T/C: 161 % of control
dose: 0.4 mg/kg/injection, schedule: Q01DX011 (ip), vehicle: carboxymethylcellulose (CMC)
  T/C: 110 % of control
dose: 0.5 mg/kg/injection, schedule: Q01DX011 (ip), vehicle: saline
  T/C: 13 % of control
dose: 0.69 mg/kg/injection, schedule: Q01DX011 (ip), vehicle: carboxymethylcellulose (CMC)
  T/C: 9 % of control
dose: 0.75 mg/kg/injection, schedule: Q01DX011 (ip), vehicle: carboxymethylcellulose (CMC)
  T/C: 4 % of control
dose: 0.87 mg/kg/injection, schedule: Q01DX011 (ip), vehicle: saline
  T/C: 21 % of control
dose: 0.9 mg/kg/injection, schedule: Q01DX011 (ip), vehicle: carboxymethylcellulose (CMC)
  T/C: 31 % of control
dose: 1.0 mg/kg/injection, schedule: Q01DX007 (ip), vehicle: carboxymethylcellulose (CMC)
  T/C: 23 % of control
dose: 1.0 mg/kg/injection, schedule: Q01DX011 (ip), vehicle: saline
  T/C: 2 % of control and 16 % of control and 27 % of control
dose: 1.07 mg/kg/injection, schedule: Q01DX011 (ip), vehicle: carboxymethylcellulose (CMC)
  T/C: 32 % of control
dose: 1.25 mg/kg/injection, schedule: Q01DX011 (ip), vehicle: carboxymethylcellulose (CMC)
  T/C: 3 % of control and 11 % of control
dose: 1.38 mg/kg/injection, schedule: Q01DX011 (ip), vehicle: carboxymethylcellulose (CMC)
  T/C: 4 % of control
dose: 1.5 mg/kg/injection, schedule: Q01DX011 (ip), vehicle: alkali diluted with saline
  T/C: 8 % of control
dose: 1.5 mg/kg/injection, schedule: Q01DX011 (ip), vehicle: saline
  T/C: 3 % of control and 7 % of control
dose: 1.75 mg/kg/injection, schedule: Q01DX011 (ip), vehicle: saline
  T/C: 13 % of control
dose: 1.75 mg/kg/injection, schedule: Q01DX011 (oral), vehicle: saline
  T/C: 22 % of control
dose: 1.8 mg/kg/injection, schedule: Q01DX011 (ip), vehicle: carboxymethylcellulose (CMC)
  T/C: 4 % of control and 15 % of control
dose: 2.0 mg/kg/injection, schedule: Q01DX007 (ip), vehicle: carboxymethylcellulose (CMC)
  T/C: 2 % of control and 9 % of control
dose: 2.0 mg/kg/injection, schedule: Q01DX011 (ip), vehicle: alkali diluted with saline
  T/C: 2 % of control
dose: 2.14 mg/kg/injection, schedule: Q01DX011 (ip), vehicle: carboxymethylcellulose (CMC)
  T/C: 9 % of control
dose: 2.5 mg/kg/injection, schedule: Q01DX011 (oral), vehicle: alkali diluted with saline
  T/C: 4 % of control
dose: 2.67 mg/kg/injection, schedule: Q01DX011 (ip), vehicle: carboxymethylcellulose (CMC)
  T/C: 20 % of control
dose: 2.75 mg/kg/injection, schedule: Q01DX011 (ip), vehicle: carboxymethylcellulose (CMC)
  T/C: 3 % of control
dose: 3.0 mg/kg/injection, schedule: Q01DX011 (ip), vehicle: carboxymethylcellulose (CMC)
  T/C: 1 % of control and 2 % of control and 6 % of control
dose: 3.0 mg/kg/injection, schedule: Q01DX011 (ip), vehicle: saline
  T/C: 1 % of control
dose: 3.5 mg/kg/injection, schedule: Q01DX011 (ip), vehicle: saline
  T/C: 4 % of control
dose: 3.5 mg/kg/injection, schedule: Q01DX011 (oral), vehicle: saline
  T/C: 8 % of control
dose: 4.0 mg/kg/injection, schedule: Q01DX011 (ip), vehicle: carboxymethylcellulose (CMC)
  T/C: 7 % of control
dose: 4.0 mg/kg/injection, schedule: Q01DX011 (ip), vehicle: saline
  T/C: 5 % of control
dose: 4.28 mg/kg/injection, schedule: Q01DX011 (ip), vehicle: carboxymethylcellulose (CMC)
  T/C: 4 % of control and 9 % of control
dose: 5.0 mg/kg/injection, schedule: Q01DX007 (ip), vehicle: carboxymethylcellulose (CMC)
  T/C: 8 % of control
dose: 5.0 mg/kg/injection, schedule: Q01DX011 (ip), vehicle: alkali diluted with saline
  T/C: 4 % of control
dose: 5.35 mg/kg/injection, schedule: Q01DX011 (ip), vehicle: carboxymethylcellulose (CMC)
  T/C: 7 % of control and 17 % of control
dose: 5.5 mg/kg/injection, schedule: Q01DX011 (ip), vehicle: carboxymethylcellulose (CMC)
  T/C: 4 % of control and 6 % of control
dose: 6.0 mg/kg/injection, schedule: Q01DX011 (ip), vehicle: alkali diluted with saline
  T/C: 4 % of control
dose: 6.0 mg/kg/injection, schedule: Q01DX011 (ip), vehicle: saline
  T/C: 1 % of control and 5 % of control
dose: 7.0 mg/kg/injection, schedule: Q01DX011 (oral), vehicle: saline
  T/C: 10 % of control
dose: 7.13 mg/kg/injection, schedule: Q01DX011 (ip), vehicle: carboxymethylcellulose (CMC)
  T/C: 8 % of control
dose: 10.0 mg/kg/injection, schedule: Q01DX011 (ip), vehicle: alkali diluted with saline
  T/C: 1 % of control and 9 % of control
dose: 10.0 mg/kg/injection, schedule: Q01DX011 (oral), vehicle: alkali diluted with saline
  T/C: 1 % of control
dose: 10.7 mg/kg/injection, schedule: Q01DX011 (ip), vehicle: carboxymethylcellulose (CMC)
  T/C: 7 % of control and 8 % of control
dose: 11.0 mg/kg/injection, schedule: Q01DX011 (ip), vehicle: carboxymethylcellulose (CMC)
  T/C: 4 % of control
dose: 12.5 mg/kg/injection, schedule: Q01DX011 (ip), vehicle: carboxymethylcellulose (CMC)
  T/C: 1 % of control
dose: 15.0 mg/kg/injection, schedule: Q01DX011 (ip), vehicle: carboxymethylcellulose (CMC)
  T/C: 4 % of control
dose: 15.0 mg/kg/injection, schedule: Q01DX011 (ip), vehicle: saline
  T/C: 1 % of control and 4 % of control
dose: 20.0 mg/kg/injection, schedule: Q01DX011 (ip), vehicle: alkali diluted with saline
  T/C: 1 % of control and 4 % of control
dose: 21.4 mg/kg/injection, schedule: Q01DX011 (ip), vehicle: carboxymethylcellulose (CMC)
  T/C: 6 % of control
dose: 22.0 mg/kg/injection, schedule: Q01DX011 (ip), vehicle: carboxymethylcellulose (CMC)
  T/C: 3 % of control
dose: 25.0 mg/kg/injection, schedule: Q01DX011 (ip), vehicle: alkali diluted with saline
  T/C: 2 % of control and 11 % of control
dose: 25.0 mg/kg/injection, schedule: Q01DX011 (ip), vehicle: carboxymethylcellulose (CMC)
  T/C: 4 % of control
dose: 25.0 mg/kg/injection, schedule: Q01DX011 (ip), vehicle: saline
  T/C: 3 % of control
dose: 30.0 mg/kg/injection, schedule: Q01DX011 (ip), vehicle: carboxymethylcellulose (CMC)
  T/C: 4 % of control and 6 % of control
dose: 35.0 mg/kg/injection, schedule: Q01DX011 (ip), vehicle: carboxymethylcellulose (CMC)
  T/C: 5 % of control
dose: 40.0 mg/kg/injection, schedule: Q01DX011 (ip), vehicle: alkali diluted with saline
  T/C: 2 % of control
dose: 40.0 mg/kg/injection, schedule: Q01DX011 (ip), vehicle: carboxymethylcellulose (CMC)
  T/C: 5 % of control
dose: 44.0 mg/kg/injection, schedule: Q01DX007 (ip), vehicle: carboxymethylcellulose (CMC)
  T/C: 3 % of control
dose: 44.0 mg/kg/injection, schedule: Q01DX011 (ip), vehicle: alkali diluted with saline
  T/C: 2 % of control
dose: 44.0 mg/kg/injection, schedule: Q01DX011 (ip), vehicle: carboxymethylcellulose (CMC)
  T/C: 3 % of control and 5 % of control
dose: 50.0 mg/kg/injection, schedule: Q01DX011 (ip), vehicle: alkali diluted with saline
  T/C: 4 % of control
dose: 60.0 mg/kg/injection, schedule: Q01DX011 (ip), vehicle: carboxymethylcellulose (CMC)
  T/C: 4 % of control
dose: 62.0 mg/kg/injection, schedule: Q01DX011 (ip), vehicle: saline
  T/C: 2 % of control
dose: 65.0 mg/kg/injection, schedule: Q01DX011 (ip), vehicle: alkali diluted with saline
  T/C: 1 % of control
dose: 80.0 mg/kg/injection, schedule: Q01DX011 (ip), vehicle: alkali diluted with saline
  T/C: 2 % of control and 4 % of control
dose: 100.0 mg/kg/injection, schedule: Q01DX011 (ip), vehicle: alkali diluted with saline
  T/C: 1 % of control
dose: 100.0 mg/kg/injection, schedule: Q01DX011 (ip), vehicle: saline
  T/C: 1 % of control
dose: 320.0 mg/kg/injection, schedule: Q01DX001 (ip), vehicle: alkali diluted with saline
  T/C: 5 % of control
dose: 320.0 mg/kg/injection, schedule: Q01DX001 (oral), vehicle: alkali diluted with saline
  T/C: 19 % of control
dose: 320.0 mg/kg/injection, schedule: Q07DX002 (ip), vehicle: alkali diluted with saline
  T/C: 4 % of control
dose: 480.0 mg/kg/injection, schedule: Q01DX001 (oral), vehicle: alkali diluted with saline
  T/C: 22 % of control
dose: 480.0 mg/kg/injection, schedule: Q03DX004 (oral), vehicle: alkali diluted with saline
  T/C: 1 % of control
dose: 480.0 mg/kg/injection, schedule: Q07DX002 (oral), vehicle: alkali diluted with saline
  T/C: 2 % of control
dose: 640.0 mg/kg/injection, schedule: Q01DX001 (oral), vehicle: alkali diluted with saline
  T/C: 10 % of control
dose: 640.0 mg/kg/injection, schedule: Q07DX002 (oral), vehicle: alkali diluted with saline
  T/C: 2 % of control
dose: 125.0 micrograms/kg/injection, schedule: Q01DX011 (ip), vehicle: saline
  T/C: 11 % of control
dose: 250.0 micrograms/kg/injection, schedule: Q01DX011 (ip), vehicle: saline
  T/C: 20 % of control
dose: 500.0 micrograms/kg/injection, schedule: Q01DX011 (ip), vehicle: saline
  T/C: 9 % of control
dose: 1000.0 micrograms/kg/injection, schedule: Q01DX011 (ip), vehicle: saline
  T/C: 3 % of control
